{"source": "patent US20240190920A1", "about": "“BECLIN 1-TARGETED STAPLED PEPTIDE AND PHARMACEUTICAL COMPOSITION” (Shenzhen Research Institute of the Hong Kong Polytechnic …, priority 2021, published 2024)", "key": {"SKBR3 cells [1]": {"tested_on": "SKBR3 cells", "test": "Trypan blue exclusion assay, IC50 in SKBR3 cells", "type": "cell-based", "details": "SKBR3, 24h", "method": "(§1) (a) Trypan blue exclusion assay to assess the cytotoxicity IC50 (half maximal inhibitory concentration) of the indicated peptides in SKBR3 cells. Cells are treated with various concentrations of the indicated peptides for 24h. Cell numbers are manually counted by the trypan blue exclusion assay using a hemocytometer. Data are presented as mean±SD from three independent experiments. (b-d) Cell proliferation assay is performed over a time span of five days in SKBR3 cells after treatment with the indicated peptides. Cells are treated with the indicated peptides at day 0 and the cell number is calculated at the given time points. The assay is performed in 96 well plates with three independent measurements. Tat-SC4 is a control peptide with scrambled Tat-SP4 sequence but without the hydrocarbon staple.\nCell viability is measured by trypan blue exclusion assay following the standard protocol provided by the manufacturer. SKBR3 cells are seeded on 96-well plates containing complete medium at a density of 1×10^4 cells per well. […] Afterwards, the number of trypan blue positive staining cells and the number of total cells are manually counted under a light microscope (Olympus). Cell viability is calculated as the number of viable cells divided by the total number of cells. All experiments are repeated in triplicate and the mean is calculated."}, "SKBR3 cells [2]": {"tested_on": "SKBR3 cells", "test": "Flow cytometry with Annexin V FITC-PI staining", "type": "cell-based", "method": "FIG. 12 is a schematic diagram of the result showing the peptides based on strategy (i7-01s) scaffold induce cell death with necrotic features. Flow cytometry analysis with Annexin V FITC-PI staining is performed in SKBR3 cells after treatment of the indicated peptides for 24 hours.\nThe degree of cellular apoptosis and necrosis is assessed by flow cytometry following the standard protocol provided by the manufacturer. Briefly, SKBR3 cells after the indicated peptide treatment are harvested by trypsin, labelled with Annexin V and PI (Invitrogen), subjected to flow cytometer system (BD Accuri C6), and analyzed by BD Accuri C6 software. The cell populations can be distinguished by the staining of Annexin V/PI. Typically, cellular population in the lower left quadrant is live cells (Annexin V^−, PI^−), the lower right quadrant represents early apoptotic cells (Annexin V^+, PI^−), the upper right quadrant represents late apoptotic cells (Annexin V^+, PI^+), the upper left quadrant represents necrotic cells (Annexin V^−, PI^+)."}, "HER2": {"tested_on": "HER2", "test": "EGF-induced endolysosomal degradation of HER2, Western blot", "type": "cell-based", "details": "SKBR3, 2 μM", "method": "(§2) FIG. 9 is a schematic diagram of the result showing peptides based on (I7-01s) scaffold are potent inducers of endolysosomal trafficking. (a-c) Western blot to assess the HER2 and EGFR levels in SKBR3 cells. Cells are starved overnight and are treated with 200 ng/ml EGF respectively with vehicle control (a), 2 μM Tat-SP4 (b), 2 μM i7-01s-31 (c). (d & e) Time-dependent plots to quantify HER2 and EGFR degradation profiles after three independent experiments. The levels of HER2 (d) and EGFR (e) are normalized to the β-actin level at different time points and then further normalized to time 0, when the ligand EGF is added. Data are presented as mean±SEM (n=3).\nIn some embodiments, the Beclin 1-targeting stapled peptide provided by the present disclosure can effectively promote endolysosomal trafficking. As a scaffolding member of the PI3KC3 complex, Beclin 1 is essential for multiple PI3KC3-dependent processes including autophagy, endolysosomal trafficking and phagocytosis. To assess the efficacy of the newly designed peptides on the endolysosomal trafficking process, the ligand-induced endolysosomal degradation of cell surface receptors HER2 and EGFR is characterized by western blotting using SKBR3 breast cancer cell line that over-expresses both EGFR and HER2. […] In contrast, i7-01s-31 treatment at 2 μM results in significant reduction of HER2 level, with about 50% decrease at 15 hours post EGF stimulation, and about 70% decrease at 24 hours (as shown in FIGS. 9c & 9d). i7-01s-31 treatment also strongly promotes EGFR degradation, with approximately 60% reduction at 15 hours post EGF stimulation (as shown in FIGS. 9c & 9e).\nWhole cell lysates are extracted using Laemmli sample buffer (62.5 mM Tris-HCl, pH 6.8, 2% SDS, 25% glycerol, 5% β-mercaptoethanol) supplemented with EDTA-free protease inhibitor cocktail (Roche). Protein concentration is determined using a standard Bradford assay before immunoblotting. Protein samples are separated by SDS-PAGE, transferred to a PVDF membrane (Millipore, USA), and incubated with the primary antibodies and HRP-conjugated secondary antibodies. […]"}, "SKBR3 cells [3]": {"tested_on": "SKBR3 cells", "test": "Five-day cell proliferation assay", "type": "cell-based", "details": "SKBR3, five days, 10 μM", "method": "as §1"}, "[4]": {"target": "T1, Beclin 1 coiled coil domain (Homo sapiens, UniProt Q14457)", "T1 construct": "the coiled coil domain of human Beclin 1 (residues 176-268); thioredoxin-6xHis fusion tag with HRV 3C protease cleavage site; made in house; host or cells: Escherichia coli BL21(DE3)", "T1 sequence (Q14457 176-268)": "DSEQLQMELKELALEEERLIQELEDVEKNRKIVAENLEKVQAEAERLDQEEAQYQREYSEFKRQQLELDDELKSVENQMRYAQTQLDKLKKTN", "test": "Isothermal titration calorimetry (ITC) binding affinity", "details": "25° C., pH 7.4, Tat-fused peptide, read-out: Kd", "method": "The expression and purification of Beclin 1 coiled coil domain is performed as described previously. Briefly, the coiled coil domain of human Beclin 1 (residues 176-268) is cloned into the modified pET32a vector containing the human rhinovirus (HRV) 3C protease cleavage site and thioredoxin-6×His fusion tag. Recombinant protein for the Beclin1 coiled oil domain is expressed in Escherichia coli BL21(DE3) and purified by Ni^2+-NTA affinity chromatography (His Trap HP, GE Healthcare) first and followed by size-exclusion chromatography (Superdex 75, GE Healthcare).\nITC assays are carried out by MicroCal PEAQ-ITC Automated (Marvern) at 25° C. All designed peptides and purified protein for the Beclin 1 coiled coil domain are dialyzed into the buffer containing 50 mM Tris, 150 mM NaCl at pH 7.4. For each titration assay, the injection syringe is loaded with 40 μl of peptide and the cell is loaded with Beclin 1 coiled coil domain protein. Typically, titrations consist of 19 injections, and each injection is performed at a time interval of 180 seconds to ensure that the titration peak returns to the baseline. The titration data are analyzed using the MicroCal PEAQ-ITC Analysis software and fitted by the one-site binding model."}, "HEK293T cells [5]": {"tested_on": "HEK293T cells", "test": "Trypan blue exclusion cytotoxicity assay in HEK293T cells", "type": "cell-based", "method": "FIG. 7 is a schematic diagram of the result of evaluating the cytotoxicity of the newly designed stapled peptide on HEK293T cells by the trypan blue exclusion assay.\nCell viability is measured by trypan blue exclusion assay following the standard protocol provided by the manufacturer. SKBR3 cells are seeded on 96-well plates containing complete medium at a density of 1×10^4 cells per well. Upon cell attachment, cells are treated with the indicated stapled peptide or vehicle control for 24 hours. Afterwards, the number of trypan blue positive staining cells and the number of total cells are manually counted under a light microscope (Olympus). Cell viability is calculated as the number of viable cells divided by the total number of cells. All experiments are repeated in triplicate and the mean is calculated."}, "EGFR": {"tested_on": "EGFR", "test": "EGF-induced endolysosomal degradation of EGFR, Western blot", "type": "cell-based", "details": "SKBR3, 2 μM, 15 hours post EGF stimulation", "method": "as §2\nIn some embodiments, the Beclin 1-targeting stapled peptide provided by the present disclosure can effectively promote endolysosomal trafficking. As a scaffolding member of the PI3KC3 complex, Beclin 1 is essential for multiple PI3KC3-dependent processes including autophagy, endolysosomal trafficking and phagocytosis. […]\nWhole cell lysates are extracted using Laemmli sample buffer (62.5 mM Tris-HCl, pH 6.8, 2% SDS, 25% glycerol, 5% β-mercaptoethanol) supplemented with EDTA-free protease inhibitor cocktail (Roche). Protein concentration is determined using a standard Bradford assay before immunoblotting. […]"}, "HEK293T cells [6]": {"tested_on": "HEK293T cells", "test": "Western blot of autophagy markers LC3 and p62", "type": "cell-based", "method": "FIG. 8 is a schematic diagram showing that the peptides based on the i7-01s scaffold are effective inducers of autophagy. (a) Western blot to assess the p62 level and LC3 lipidation profile in HEK293T cells after treatment with 10- and 20-μM i7-01s-31 for 3 hours, in the presence or absence of CQ. (b)&(c) Quantification of LC3 lipidation profiles from the Western blot data. (d)&(e) Quantification of p62 levels from the Western blot data from (a).\nThe impact of these two peptides on cellular autophagic activity is examined by detecting the protein levels of LC3 and p62, two molecular markers of autophagy. During the autophagy process, cytosolic protein LC3 is converted from its apo form (LC3-I) to lipidated form (LC3-II) for accumulation on autophagosomes. Thus, an increase in LC3-II level is regarded as a reliable indicator of elevated cellular autophagic activity. Similarly, p62 is an autophagy receptor that is degraded in the lysosome together with autophagic substrates. A decrease in p62 level is also commonly used as an indicator for higher autophagic activity, although some studies have shown that p62 is not as sensitive as LC3-II.\nWhole cell lysates are extracted using Laemmli sample buffer (62.5 mM Tris-HCl, pH 6.8, 2% SDS, 25% glycerol, 5% β-mercaptoethanol) supplemented with EDTA-free protease inhibitor cocktail (Roche). Protein concentration is determined using a standard Bradford assay before immunoblotting. Protein samples are separated by SDS-PAGE, transferred to a PVDF membrane (Millipore, USA), and incubated with the primary antibodies and HRP-conjugated secondary antibodies. Protein bands are visualized using ECL reagents. β-actin is used as the internal reference protein to control the loading amount of SDS-PAGE."}}, "note": "“Also recorded” adds a separate entry of the source. Bridge positions count the residues as written; N and C are the ends. Square brackets hold non-standard residues; d marks the D form. Peptide text beside a SMILES is read from it. R8 = C=CCCCCCC[C@@](C)(N)C(=O)O; S5 = C=CCCC[C@](C)(N)C(=O)O", "data": [{"molecule": "CC[C@H](C)[C@@H]1NC(=O)[C@H](C(C)C)NC(=O)[C@H](CC(=O)O)NC(=O)[C@H](C(C)C)NC(=O)[C@H](CC(C)C)NC(=O)[C@](C)(NC(=O)[C@H](CC(N)=O)NC(=O)[C@H](Cc2ccccc2)NC(=O)[C@H](CC(C)C)NC(=O)[C@@H](NC(=O)[C@H](CCCNC(=N)N)NC(=O)[C@H](CCCNC(=N)N)NC(=O)[C@H](CCCNC(=N)N)NC(=O)[C@H](CCC(N)=O)NC(=O)[C@H](CCCNC(=N)N)NC(=O)[C@H](CCCNC(=N)N)NC(=O)[C@H](CCCCN)NC(=O)[C@H](CCCCN)NC(=O)[C@H](CCCNC(=N)N)NC(=O)CNC(=O)[C@H](Cc2ccc(O)cc2)NC(C)=O)C(C)C)CCCCCCC=CCCC[C@@](C)(C(=O)N[C@@H](CCCNC(=N)N)C(=O)N[C@@H](CCCCN)C(=O)N[C@H](C(N)=O)C(C)C)NC(=O)[C@H](CCCCN)NC1=O", "note": "[i7-01s-31] (Ac-YGRKKRRQRRRVLFN[R8]LVDVIK[S5]RKV-NH2; staple 16-23)", "values": [{"measurement": "IC50", "setting": "SKBR3 cells [1]", "value": 7.12, "unit": "µM"}, {"measurement": "PI positive cells", "setting": "SKBR3 cells [2]; SKBR3, 10 μM, 24 hours", "value": "approximately 30%"}, {"measurement": "change of Annexin V positive cells (apoptosis)", "setting": "SKBR3 cells [2]; SKBR3, 24 hours", "value": "without notable changes; also recorded: no increase"}, {"measurement": "change of PI positive staining cells (dead cells)", "setting": "SKBR3 cells [2]; SKBR3, 24 hours", "value": "significantly increased; also recorded: significant increase"}, {"measurement": "decrease of HER2 level", "setting": "HER2; 15 hours post EGF stimulation", "value": "about 50%"}, {"measurement": "decrease of HER2 level", "setting": "HER2; 24 hours post EGF stimulation", "value": "about 70%"}, {"measurement": "effect on cell proliferation", "setting": "SKBR3 cells [3]", "value": "completely abolish cell proliferation"}, {"measurement": "Kd", "setting": "[4]", "value": "330 ± 280", "unit": "nM"}, {"measurement": "cell viability", "setting": "HEK293T cells [5]; 5 μM, 24 hours", "value": "little impact on cell viability"}, {"measurement": "cytotoxicity", "setting": "HEK293T cells [5]; 20 μM, 24 h", "value": "negligible cytotoxicity"}, {"measurement": "reduction of EGFR", "setting": "EGFR", "value": "approximately 60%"}, {"measurement": "autophagy induction compared with Tat-SP4", "setting": "HEK293T cells [6]", "value": "comparable efficacy"}, {"measurement": "LC3-II levels", "setting": "HEK293T cells [6]; 10 and 20 μM, 3 hours, absence of CQ", "value": "noticeable albeit small increase"}, {"measurement": "LC3-II levels", "setting": "HEK293T cells [6]; 10 and 20 μM, 3 hours, presence of chloroquine (CQ)", "value": "significantly stronger"}, {"measurement": "protein level of p62", "setting": "HEK293T cells [6]; 10 and 20 μM, 3 hours, presence or absence of CQ", "value": "does not show any noticeable change"}]}]}
